From patent US10596263B2, “Pazopanib formulation” (Novartis AG, priority 2011, dated 2020)

What was measured:
[1] = In-vivo exposure of the drug after micronization; details: micronized active substance
Description: The pazopanib active substance is preferably micronized. […] Particle size reduction also helps to improve the mouth-feel of the suspension. Micronization may be achieved using techniques known in the art. According to one embodiment, particle size reduction is achieved through the use of fluid energy jet mill wherein the powder gets suspended in a high velocity nitrogen gas stream in a milling chamber, and particle size is reduced due to the principle of impact and attrition due to the high velocity collisions between particles suspended within the nitrogen gas stream, causing them to break down into smaller particles. Centrifugal force causes the larger, heavy particles to separate from smaller, lighter particles. The small particles are dragged by the escaping fluid stream towards the center of the mill, where they are discharged into filter bags, and the material is then collected into drums. The large particles are thrown outward where they recirculate and re-collide, causing them to breakdown. According to one embodiment, the resulting particle size distribution of pazopanib hydrochloride particles is >90% between 0.61 and 10.0 microns. In another embodiment, at least 50% is from 1 to 10 microns, preferably from 1.1 to 3.9 microns. In another embodiment 90% is 20 microns or less, preferably 10 microns or less.

[2] = Physical stability (form conversion) of reconstituted pazopanib suspension, monitored by XRPD; format: physicochemical
Method: Regarding the use of buffers, physical stability of the invented suspension was determined to be a function of pH, temperature, buffering system, and buffer strength as shown in Table I (some repeat runs are shown).
By removing the sodium citrate from the buffering system the rate of formation of the citrate salt under both refrigerated and long term storage conditions was impeded. Suspensions containing citric acid and sodium phosphate buffering system at pH 4.0 with buffer strength from 0.05 to 0.20 M and no PVP were all stable up to 43 days at refrigerated conditions. At long term storage conditions of 25° C./60% RH form conversion was detected at day 7 but the citrate salt was first observed on day 20.
Table 4 depicts a qualitatively similar formulation to the exemplary formulation, Example 1. Both formulations were manufactured using the same unit operations and processing parameters. […] At long term storage conditions of 25° C./60% RH or room temperature the physical stability of the comparative suspension monitored by XRPD indicated a mixture of forms were detected at day 7 compared with the exemplary formulation (Table 3) that was stability up to 34 days. It was determined that the use of citric acid and trisodium citrate buffer system speed the conversion to the pazopanib citrate salt. It is believed that this is driven by the smaller buffering capacity of citric acid and trisodium citrate buffer.

[3] = Solubility of pazopanib in water at various pH; format: physicochemical
Description: FIG. 2 is a graph showing the solubility of pazopanib in water at various pH.
Based on the pH-solubility curve of pazopanib (FIG. 2) the solubility profile between pH 3 and pH 6 is on a steep slope and therefore, small changes in pH will have a large change in solubility. At the lower pH levels the citrate and monohydrate salts predominate and at the higher pH the freebase predominates. When the suspension is buffered at pH 3.5 and below with citric acid and sodium phosphate buffering system, the drug substance in the suspension changes form to the hydrate and Citrate salts in less than 17 days after reconstitution under refrigerated storage condition 5° C. […] Therefore, the compositions of this invention are such that when reconstituted they preferably provide a suspension with a pH from 2.5 to 4.5, preferably a pH of from 3.0 to 4.2, and most preferably a pH of from 3.5 to 4.0.

[4] = Citric Acid/Sodium Citrate 0.2M, initial pH 4.0, PVP 0% wt/wt, 5° C./Ambient
[5] = Citric Acid/Sodium Citrate 0.5M, initial pH 4.0, PVP 0% wt/wt, 25° C./60% RH
[6] = Citric Acid/Sodium Phosphate 0.1M, initial pH 4.0, PVP 0% wt/wt, 25° C./60% RH
[7] = Citric Acid/Sodium Phosphate 0.2M, initial pH 4.0, PVP 0% wt/wt, 25° C./60% RH
[8] = citric acid and sodium phosphate buffer, pH 4.0, 0.05 to 0.20 M, no PVP, 25° C./60% RH

## Cc1ccc(Nc2nccc(N(C)c3ccc4c(C)n(C)nc4c3)n2)cc1S(N)(=O)=O [pazopanib, 5-[[4-[(2,3-dimethyl-2H-indazol-6-yl)methylamino]-2-pyrimidinyl]amino]-2-methylbenzenesulfonamide]
[1]
  in-vivo exposure, effect of micronization: enhance
[2]; Citric Acid/Sodium Citrate 0.05M, initial pH 4.0, PVP 0% wt/wt, 5° C./Ambient
  Physical Stability: 43 days
[2]; [4]
  Physical Stability: conversion to citrate salt by day: by day 42
  Physical Stability: mixture of forms by day: day 21;
[2]; Citric Acid/Sodium Citrate 0.2M, initial pH 4.0, PVP 0% wt/wt, 25° C./60% RH
  Physical Stability: conversion to citrate salt by day: day 7
[2]; Citric Acid/Sodium Citrate 0.5M, initial pH 4.0, PVP 0% wt/wt, 5° C./Ambient
  Physical Stability: conversion to citrate salt by day: day 14
[2]; [5]
  Physical Stability: conversion to citrate salt by day: day 14
  Physical Stability: mixture of forms at: initial;
[2]; Citric Acid/Sodium Phosphate 0.05M, initial pH 4.0, PVP 0% wt/wt, 5° C./Ambient
  Physical Stability: 43 days
[2]; Citric Acid/Sodium Phosphate 0.05M, initial pH 4.0, PVP 0% wt/wt, 25° C./60% RH
  Physical Stability: At least 7 Days;
[2]; Citric Acid/Sodium Phosphate 0.1M, initial pH 4.0, PVP 0% wt/wt, 5° C./Ambient
  Physical Stability: 43 days
[2]; [6]
  Physical Stability: At least 7 Days;
  Physical Stability: mixture of forms by day: day 20
[2]; Citric Acid/Sodium Phosphate 0.2M, initial pH 3.0, PVP 0% wt/wt, 5° C./Ambient
  Physical Stability: conversion to citrate salt by day: day 17
[2]; Citric Acid/Sodium Phosphate 0.2M, initial pH 3.2, PVP 0% wt/wt, 5° C./Ambient
  Physical Stability: conversion to citrate salt by day: day 17
[2]; Citric Acid/Sodium Phosphate 0.2M, initial pH 3.5, PVP 0% wt/wt, 5° C./Ambient
  Physical Stability: conversion to citrate salt by day: day 17
[2]; Citric Acid/Sodium Phosphate 0.2M, initial pH 4.0, PVP 0% wt/wt, 5° C./Ambient
  Physical Stability: 43 days
[2]; [7]
  Physical Stability: At least 7 Days;
  Physical Stability: conversion to citrate salt by day: day 20
[2]; PVP added, citric acid and sodium phosphate, pH 4.0, buffering strength 0.05 M
  Physical Stability: at least 20 days
[2]; PVP levels between 3.8 to 7.4% w/w, inclusive, citric acid and sodium phosphate, pH 4.0, 0.05 M
  pazopanib monohydrochloride salt maintained until: 34 days
[2]; buffered at pH 3.5 and below, citric acid and sodium phosphate, refrigerated 5° C.
  drug substance changes form to the hydrate and Citrate salts after reconstitution: less than 17 days
[2]; citric acid and sodium citrate buffer, pH 4.0, buffer strength 0.05 M to 0.5 M, 5° C.
  form conversion started on day: ≥ 14 days
[2]; citric acid and sodium citrate buffer, pH 4.0, buffer strength 0.05 M to 0.5 M, 25° C./60% RH
  Conversion of pazopanib to the citrate salt observed at: initial to day 7
[2]; [8]
  citrate salt first observed on day: 20 days
  form conversion detected at day: 7 days
[2]; citric acid and sodium phosphate buffer, pH 4.0, 0.05 to 0.20 M, no PVP, refrigerated conditions
  stable (physical stability of suspension): up to 43 days
[3]; between pH 3 and pH 6, water (FIG. 2)
  pH-solubility profile: steep slope
[3]; micronized active substance
  solubility, effect of micronization: enhance
